Columns and labels:
PaHDR1 = tested on: T1, PaHDR1; assay: LC-MS/MS of DMADP + IDP, initial velocities, Lineweaver-Burk; type: biochemical, Picea abies; details: anaerobic; 1 mM methyl viologen, 3 mM sodium dithionite, MgCl2; pH 6.5; 30 °C or 35 °C
T1 construct: gene HDR1; plastid transit peptide removed (borders only in supplemental primers); E. coli BL21-AI; anaerobic glutathione column; [4Fe-4S] enzyme

PaHDR2 = tested on: T2, PaHDR2; assay: as above; type: biochemical, Picea abies; details: anaerobic; 1 mM methyl viologen, 3 mM sodium dithionite, MgCl2; pH 6.5; 30 °C or 35 °C; text calls PaHDR1 the lower-affinity enzyme, against the printed order of Km values; Figure 3 legend
T2 construct: gene HDR2; plastid transit peptide removed (borders only in supplemental primers); E. coli BL21-AI; anaerobic glutathione column; [4Fe-4S] enzyme

Km (PaHDR1): 15.9 µM
Km (PaHDR2): 21.2 µM
SMILES: C/C(=C\COP(=O)(O)OP(=O)(O)O)CO [HMBDP, (E)-4-hydroxy-3-methylbut-2-enyl diphosphate]

Source: paper PMC10231375, “HDR, the last enzyme in the MEP pathway, differently regulates isoprenoid biosynthesis in two woody plants” (Plant Physiology, 2023)
